Results reported in US9067896B2, “Crystalline forms of 3-(2,6-dichloro-3,5-dimethoxy-phenyl)-1-{6-[4-(4-ethyl-piperazin-1-yl) -phenylamino]-pyrimidin-4-yl}-1-methyl-urea and salts thereof” (Novartis AG, priority 2009, dated 2015).
Counter-ions that a name gives are not always drawn.

How the values were obtained:
Assay type in all cases: physicochemical
[1] = Hygroscopicity from DVS sorption/desorption isotherms; details: for weight gain due to water absorption (DVS): listed as hydrochloride salt
Method: Hygroscopicity was measured from sorption/desorption isotherms using Surface Measurement System DVS-1 at 25±0.5° C. Samples were evaluated at various humidities including 75%, 85%, and 95%.
The free base (anhydrous and monohydrate) and its phosphate salt (form A) were subjected to sorption and desorption cycle using a VTI brand instrument. The solids were collected after the experiment and analyzed. […] The DVS plots are shown in FIGS. 4A (free base, anhydrous), 4B (phosphate salt (form A) and 4C (free base, monohydrate). The maximum water uptake for the phosphate salt (form A) was less than 2% (i.e. 0.7%) at 25° C. up to 95% relative humidity (rh) (see Table 9). The maximum water uptake for the monohydrate was less than 1.4% at 25° C. up to 95% RH. The monohydrate with an approximate water content of 3% could not be completely dried during the experiment but the water that could be removed was reversibly reabsorbed. The plateau of existence of the monohydrate form is found to be within 10% and 95% RH with a slight hysteresis at the second desorption cycle.

[2] = Determination of solubility (equilibration in solvent, filtrate by HPLC); details: for Solubility: initial solubility test
Method: Excess free base (free base of Formula I), its phosphate salt (the monophosphoric acid salt of the free base), or another acid salt was equilibrated in solvents for 1 day at 25±0.5° C. The resultant slurry was filtered and the filtrate used for solubility determination by HPLC.
Solubility of the monohydrate of the anhydrous and monohydrate free base was measured in various aqueous media (e.g., pH 6.8 buffer, pH 4.5 buffer, pH 1 buffer), including simulated and actual human fluids.
The human fluids were collected from 12 human subjects.
Solubility studies of the phosphate salt were undertaken in aqueous media and in human fluids at 24 hours.

[3] = Intrinsic dissolution rate; details: 37° C., disc 50 rpm, 290.2 nm
Method: The intrinsic dissolution rate measurements were carried out in 0.5 cm^2 VanKel punch and die assemblies at a pellet pressure of 2000 pounds. […]
The intrinsic dissolution rate was determined for the phosphate salt in water, pH=6.8 and 0.1N HCl, and for the free base monohydrate in pH=6.8, 4.5 and 0.1N HCl. The measurements were carried out on a VanKel instrument using a Cary UV/VIS spectrophotometer (Table 2).

CCN1CCN(c2ccc(Nc3cc(N(C)C(=O)Nc4c(Cl)c(OC)cc(OC)c4Cl)ncn3)cc2)CC1 [Hydrochloride Salt]
weight gain due to water absorption (DVS) ([1]; 75% RH): about 4.1%
weight gain due to water absorption (DVS) ([1]; 95% RH): about 16.9%
hygroscopicity (in words) ([1]; listed as hydrochloride): hygroscopic
Solubility in mg/ml after 24 h ([2]; Fasted State Simulated Intestinal Fluid (FaSSIF)): 0.003 mg/mL
Solubility in mg/ml after 24 h ([2]; Fed State Simulated Intestinal Fluid (FeSSIF)): 0.248 mg/mL
Solubility in mg/ml after 24 h ([2]; HIF, fed): 0.0109 mg/mL
Solubility in mg/ml after 24 h ([2]; Human gastric fluid (HGF)): 0.0348 mg/mL
Solubility in mg/ml after 24 h ([2]; Human intestinal fluid (HIF) fasted): 0.0154 mg/mL
Solubility in mg/ml after 24 h ([2]; Simulated Gastric Fluid (SGF)): 0.073 mg/mL
Solubility in mg/ml after 24 h ([2]; pH 1 HCl): 0.075 mg/mL
Solubility in mg/ml after 24 h ([2]; ph 4.5 Acetate): 0.822 mg/mL

CCN1CCN(c2ccc(Nc3cc(N(C)C(=O)Nc4c(Cl)c(OC)cc(OC)c4Cl)ncn3)cc2)CC1 [Free base (monohydrate)]
maximum water uptake ([1]; 25° C. up to 95% relative humidity): less than 1.4%
Intrinsic DR value ([3]; HCl 0.1N): 0.3132 mg/min/cm^2
Intrinsic DR value ([3]; pH = 4.5): 0.0001 mg/min/cm^2
Intrinsic DR value ([3]; pH = 6.8): 0.0026 mg/min/cm^2
Solubility in mg/ml after 24 h ([2]; Fasted State Simulated Intestinal Fluid (FaSSIF), listed as Monohydrate Free Base): 0.003 mg/mL
Solubility in mg/ml after 24 h ([2]; Fed State Simulated Intestinal Fluid (FeSSIF), listed as Monohydrate Free Base): 0.459 mg/mL
Solubility in mg/ml after 24 h ([2]; HIF, fed, listed as Monohydrate Free Base): 0.040 mg/mL
Solubility in mg/ml after 24 h ([2]; Human gastric fluid (HGF), listed as Monohydrate Free Base): 0.002 mg/mL
Solubility in mg/ml after 24 h ([2]; Human intestinal fluid (HIF) fasted, listed as Monohydrate Free Base): 0.019 mg/mL
Solubility in mg/ml after 24 h ([2]; Simulated Gastric Fluid (SGF), listed as Monohydrate Free Base): 0.020 mg/mL
Solubility in mg/ml after 24 h ([2]; pH 1 HCl, listed as Monohydrate Free Base): 0.103 mg/mL
Solubility in mg/ml after 24 h ([2]; ph 4.5 Acetate, listed as Monohydrate Free Base): 0.054 mg/mL

Methanesulfonate
Solubility ([2]; Water): 870 µg/mL
Solubility ([2]; pH3 Buffer): 3 µg/mL

Malonate
weight gain by DVS ([1]; over the humidities tested (75%, 85%, 95% RH)): about 10%
